Assay results published in article PMC10321576, “Cyclic peptides target the aromatic cage of a PHD-finger reader domain to modulate epigenetic protein function” (Chemical Science, 2023).
Peptide text beside a SMILES is read from it.

Key:
KDM7B PHD = biological target: T1, KDM7B PHD (Homo sapiens, UniProt Q9UPP1); experiment: BLI binding; parameters: key to BLI Screening, KDM7B PHD: (+) = binding; (-) = no binding; (NS) = non-specific
T1 construct: KDM7B 1-66; made in house
T1 sequence (Q9UPP1 1-66 isoform Q9UPP1-2): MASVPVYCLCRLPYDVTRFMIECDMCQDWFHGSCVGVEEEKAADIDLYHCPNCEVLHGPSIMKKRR
Description: (§1) Figure S2. BLI for KDM7 proteins with cyclic peptides.
(§2) BLI traces for b inding to KDM7 protein domains immobilised by C-terminal His -tag on Ni -NTA
(§3) biosensors, against cyclic peptides. Response trace for each peptide concentration is represented by
(§4) a different colour, with the fitted curves overlaid in black.
(§5) concentration plotted, with 2-fold dilutions thereafter. Dual domain = PHD+JmjC. […]
(§6) against KDM7 and other protein domains. t1/2 = half life (0.693 / Koff)
(§7) (1 picture or pasted object on this page, not shown here)

KDM7B JmjC = biological target: T2, KDM7B JmjC (Homo sapiens, UniProt Q9UPP1); experiment: BLI binding; parameters: key to BLI Screening, KDM7B JmjC: (+) = binding; (-) = no binding; (NS) = non-specific
T2 construct: made in house
T2 sequence (Q9UPP1 231-387 limits assumed): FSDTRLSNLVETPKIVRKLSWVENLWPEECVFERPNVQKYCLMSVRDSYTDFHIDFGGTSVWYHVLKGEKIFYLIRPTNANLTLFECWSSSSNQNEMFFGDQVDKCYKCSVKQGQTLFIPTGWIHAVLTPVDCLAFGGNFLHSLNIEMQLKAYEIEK
Description: as §1, §2, §3, §4, §5, §6, §7

KDM2/3/4/5/6 = experiment: KDM selectivity screening by MALDI-TOF-MS; type: biochemical; details: histone peptide substrates; incl. full-length KDM2A and KDM2B
Description: The panel included full-length recombinant KDM2A and KDM2B which have the closest JmjC-domains to KDM7s, but with unrelated PHD-fingers (Fig. S43 and S44 ^†).

KDM7B PHD-finger = biological target: T3, KDM7B PHD-finger (Homo sapiens, UniProt Q9UPP1); experiment: Protein NMR 1H-15N HSQC chemical shift perturbation; type: binding; details: Free PHD vs PHD+peptide
T3 construct: KDM7B 1-66; His-tag (C); made in house
T3 sequence (Q9UPP1 1-66 isoform Q9UPP1-2): T1 sequence (Q9UPP1 1-66 isoform Q9UPP1-2)
Description: To better elucidate OC9 interactions at a single residue level, we conducted protein NMR studies using isotopically labelled PHD-finger.[48] Comparison of ^1H–^15N HSQC spectra for isotopically labelled apo and OC9-bound protein (Fig. 4a), independently assigned using ^13C,^15N 3D experiments (Fig. S21, NMR ESI ^†), identified 24 out of 66 protein residues with significant (standard deviation, s > 1) chemical shift perturbation (CSP, Δδ) of their backbone amides (Fig. 4b).
(a) ^1H–^15N HSQC of KDM7B PHD-finger in the apo (black) or bound forms with OC9 (purple, 1 : 1) or H3_1–21K4me3 (green, 3 : 1). (b) ^1H and ^15N chemical shift changes for apo vs. + OC9 were combined and weighted to give chemical shift perturbation (CSP) (Δδ) values. Standard deviation (σ) of Δδ are indicated (>1 pink, >2 purple). (c) TALOS+ predicts similar secondary structure elements in apo and OC9-bound solution protein complexes (light grey) to those found in PDB ID 3KV4 (dark grey). […] (e) Shielded ^1H-NMR signals centred around −0.5 ppm belonging to the OC9 V10 γ-methyl groups are observed in some OC9–PHD complexes, but not in apo protein, or complexes with OC9 V10A and OC9 V10DV. The V10^OC9 γ-methyl signals have NOE interactions (black semi-circles) with the W29^PHD indole, which itself is shielded upon binding of OC9 (indicated by ΔδH values).

[1] = qualitative assessment of binding by BLI

SMILES: CC(C)C[C@@H]1NC(=O)[C@H](Cc2ccc(O)cc2)NC(=O)[C@H](Cc2ccc(O)cc2)NC(=O)CSC[C@@H](C(N)=O)NC(=O)[C@H]([C@@H](C)O)NC(=O)[C@H](CCCNC(=N)N)NC(=O)[C@H](Cc2ccccc2)NC(=O)[C@H](C(C)C)NC(=O)[C@H](CO)NC(=O)[C@@H]2CCCN2C(=O)[C@H](Cc2ccc(O)cc2)NC(=O)[C@@H]2CCCN2C(=O)[C@H](Cc2c[nH]cn2)NC(=O)[C@H]([C@@H](C)O)NC1=O [OC9] (HELM PEPTIDE1{[O=C(C[*:3])[*:2]].Y.Y.L.T.H.P.Y.P.S.V.F.R.T.C.[am]}$PEPTIDE1,PEPTIDE1,1:R3-15:R3$$$V2.0)
- koff (KDM7B PHD; 1:1 binding model): 0.00143 ± 1e-05 s⁻¹
- kon (KDM7B PHD; 1:1 binding model): 360000 ± 2000 M⁻¹ s⁻¹
- Kd (KDM7B PHD; His-tagged protein on Ni-NTA biosensors, 1:1 binding model, read-out: BLI KD, KDM7B PHD): 3.96 nM
- BLI Screening, KDM7B PHD (KDM7B PHD; [1]): +
- Kd (KDM7B JmjC; 1:1 binding model, read-out: BLI pKD, KDM7B JmjC (converted)): > 1000 nM
- BLI KD, KDM7B JmjC (KDM7B JmjC; His-tagged protein on Ni-NTA biosensors, 1:1 binding model): no affinity
- BLI Screening, KDM7B JmjC (KDM7B JmjC; [1]): -
- inhibition of other isolated KDM sub-families (KDM2/3/4/5/6) (KDM2/3/4/5/6): no significant inhibition
- CSP Trp side chain (KDM7B PHD-finger; Trp side chain 1H-15N): 0.6107
- CSP Ala2 (KDM7B PHD-finger; residue Ala2 amide 1H-15N): 0.0035
- CSP Ala42 (KDM7B PHD-finger; residue Ala42 amide 1H-15N): 0.4429
- CSP Ala43 (KDM7B PHD-finger; residue Ala43 amide 1H-15N): 0.4556
- CSP Arg11 (KDM7B PHD-finger; residue Arg11 amide 1H-15N): 0.0082
- CSP Arg18 (KDM7B PHD-finger; residue Arg18 amide 1H-15N): 0.1460
- CSP Arg65 (KDM7B PHD-finger; residue Arg65 amide 1H-15N): 0.0120
- CSP Arg66 (KDM7B PHD-finger; residue Arg66 amide 1H-15N): 0.0057
- CSP Asn52 (KDM7B PHD-finger; residue Asn52 amide 1H-15N): 0.0450
- CSP Asp15 (KDM7B PHD-finger; residue Asp15 amide 1H-15N): 0.2640
- CSP Asp24 (KDM7B PHD-finger; residue Asp24 amide 1H-15N): 0.0779
- CSP Asp28 (KDM7B PHD-finger; residue Asp28 amide 1H-15N): 0.1748
- CSP Asp44 (KDM7B PHD-finger; residue Asp44 amide 1H-15N): 0.1350
- CSP Asp46 (KDM7B PHD-finger; residue Asp46 amide 1H-15N): 0.1724
- CSP Cys8 (KDM7B PHD-finger; residue Cys8 amide 1H-15N): 0.2344
- CSP Cys10 (KDM7B PHD-finger; residue Cys10 amide 1H-15N): 0.0550
- CSP Cys23 (KDM7B PHD-finger; residue Cys23 amide 1H-15N): 0.1441
- CSP Cys26 (KDM7B PHD-finger; residue Cys26 amide 1H-15N): 0.1542
- CSP Cys34 (KDM7B PHD-finger; residue Cys34 amide 1H-15N): 0.0336
- CSP Cys50 (KDM7B PHD-finger; residue Cys50 amide 1H-15N): 0.0486
- CSP Cys53 (KDM7B PHD-finger; residue Cys53 amide 1H-15N): 0.0638
- CSP Gln27 (KDM7B PHD-finger; residue Gln27 amide 1H-15N): 0.1502
- CSP Glu22 (KDM7B PHD-finger; residue Glu22 amide 1H-15N): 0.1442
- CSP Glu38 (KDM7B PHD-finger; residue Glu38 amide 1H-15N): 0.1925
- CSP Glu39 (KDM7B PHD-finger; residue Glu39 amide 1H-15N): 0.2336
- CSP Glu40 (KDM7B PHD-finger; residue Glu40 amide 1H-15N): 0.1019
- CSP Glu54 (KDM7B PHD-finger; residue Glu54 amide 1H-15N): 0.0569
- CSP Gly32 (KDM7B PHD-finger; residue Gly32 amide 1H-15N): 0.1798
- CSP Gly36 (KDM7B PHD-finger; residue Gly36 amide 1H-15N): 0.1053
- CSP Gly58 (KDM7B PHD-finger; residue Gly58 amide 1H-15N): 0.0436
- CSP His31 (KDM7B PHD-finger; residue His31 amide 1H-15N): 0.2040
- CSP His49 (KDM7B PHD-finger; residue His49 amide 1H-15N): 0.0826
- CSP His57 (KDM7B PHD-finger; residue His57 amide 1H-15N): 0.0542
- CSP Ile21 (KDM7B PHD-finger; residue Ile21 amide 1H-15N): 0.1523
- CSP Ile45 (KDM7B PHD-finger; residue Ile45 amide 1H-15N): 0.1111
- CSP Ile61 (KDM7B PHD-finger; residue Ile61 amide 1H-15N): 0.1500
- CSP Leu9 (KDM7B PHD-finger; residue Leu9 amide 1H-15N): 0.2010
- CSP Leu12 (KDM7B PHD-finger; residue Leu12 amide 1H-15N): 0.1857
- CSP Leu47 (KDM7B PHD-finger; residue Leu47 amide 1H-15N): 0.0914
- CSP Leu56 (KDM7B PHD-finger; residue Leu56 amide 1H-15N): 0.0558
- CSP Lys41 (KDM7B PHD-finger; residue Lys41 amide 1H-15N): 0.1054
- CSP Lys63 (KDM7B PHD-finger; residue Lys63 amide 1H-15N): 0.1309
- CSP Lys64 (KDM7B PHD-finger; residue Lys64 amide 1H-15N): 0.0270
- CSP Met20 (KDM7B PHD-finger; residue Met20 amide 1H-15N): 0.3618
- CSP Met25 (KDM7B PHD-finger; residue Met25 amide 1H-15N): 0.6758
- CSP Met62 (KDM7B PHD-finger; residue Met62 amide 1H-15N): 0.0955
- CSP Phe19 (KDM7B PHD-finger; residue Phe19 amide 1H-15N): 0.3281
- CSP Phe30 (KDM7B PHD-finger; residue Phe30 amide 1H-15N): 0.2483
- CSP Ser3 (KDM7B PHD-finger; residue Ser3 amide 1H-15N): 0.0045
- CSP Ser33 (KDM7B PHD-finger; residue Ser33 amide 1H-15N): 0.1228
- CSP Ser60 (KDM7B PHD-finger; residue Ser60 amide 1H-15N): 0.0469
- CSP Thr17 (KDM7B PHD-finger; residue Thr17 amide 1H-15N): 0.2705
- CSP Trp29 (KDM7B PHD-finger; residue Trp29 amide 1H-15N): 0.3903
- CSP Tyr7 (KDM7B PHD-finger; residue Tyr7 amide 1H-15N): 0.2658
- CSP Tyr14 (KDM7B PHD-finger; residue Tyr14 amide 1H-15N): 0.3173
- CSP Tyr48 (KDM7B PHD-finger; residue Tyr48 amide 1H-15N): 0.7926
- CSP Val4 (KDM7B PHD-finger; residue Val4 amide 1H-15N): 0.0230
- CSP Val6 (KDM7B PHD-finger; residue Val6 amide 1H-15N): 0.1610
- CSP Val16 (KDM7B PHD-finger; residue Val16 amide 1H-15N): 0.3656
- CSP Val35 (KDM7B PHD-finger; residue Val35 amide 1H-15N): 0.0666
- CSP Val37 (KDM7B PHD-finger; residue Val37 amide 1H-15N): 0.0847
- CSP Val55 (KDM7B PHD-finger; residue Val55 amide 1H-15N): 0.0250
